# Test results taken from article PMC12126180 (Journal of chemical information and modeling, 2021).
# What was measured:
# SARS-CoV-2 WA1 strain = assay type: cell-based; details: Vero E6 cells
# COVID-19 = details: 1063 patients, cited from earlier work
smiles,measurement,setting,value
CC(C)(O)c1ccccc1CC[C@@H](SCC1(CC(=O)O)CC1)c1cccc(/C=C/c2ccc3ccc(Cl)cc3n2)c1 [Montelukast],activity against SARS-CoV-2 replication in words,SARS-CoV-2 WA1 strain,weakly active
CCC(CC)COC(=O)[C@H](C)N[P@](=O)(OC[C@H]1O[C@@](C#N)(c2ccc3c(N)ncnn23)[C@H](O)[C@@H]1O)Oc1ccccc1 [Remdesivir],mortality rate,COVID-19; placebo 11.9%,7.1%
same,recovery time shortened with respect to the placebo,COVID-19,four
